According to patent US11420973B2, “Amide substituted indole compounds useful as TLR inhibitors” (BRISTOL-MYERS SQUIBB COMPANY, priority 2017, dated 2022):

Legend:
human TLR7 = human TLR7 (Homo sapiens (Human), UniProt Q9NYK1); assay: TLR7 inhibition reporter assay (HEK-Blue SEAP reporter, gardiquimod stimulation); assay type: cell-based; settings: HEK-Blue cells overexpressing human TLR7, gardiquimod 7.5 μM
human TLR8 = human TLR8 (Homo sapiens (Human), UniProt Q9NR97); assay: TLR8 inhibition reporter assay (HEK-Blue SEAP reporter, R848 stimulation); settings: read-out: TLR8 IC50; HEK-Blue cells overexpressing human TLR8, R848 15.9 μM, SEAP reporter;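 note: SEAP driven by IFN-β minimal promoter with NF-κB and AP-1 sites, 22 h incubation, compounds 0.05 nM–50 µM, inhibition scaled between agonist plus DMSO and reference inhibitor wells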
human TLR9 = human TLR9 (Homo sapiens (Human), UniProt Q9NR96); assay: TLR9 inhibition reporter assay (HEK-Blue SEAP reporter, ODN2006 stimulation); settings: read-out: TLR9 IC50; HEK-Blue cells overexpressing human TLR9, ODN2006 5 nM, SEAP reporter;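 note: SEAP reporter under IFN-β minimal promoter with five NF-κB and AP-1 sites, 22 h incubation, compounds 0.05 nM–50 µM, inhibition relative to agonist plus DMSO versus known inhibitor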
human TLR9, sequence (Q9NR96 26-1032): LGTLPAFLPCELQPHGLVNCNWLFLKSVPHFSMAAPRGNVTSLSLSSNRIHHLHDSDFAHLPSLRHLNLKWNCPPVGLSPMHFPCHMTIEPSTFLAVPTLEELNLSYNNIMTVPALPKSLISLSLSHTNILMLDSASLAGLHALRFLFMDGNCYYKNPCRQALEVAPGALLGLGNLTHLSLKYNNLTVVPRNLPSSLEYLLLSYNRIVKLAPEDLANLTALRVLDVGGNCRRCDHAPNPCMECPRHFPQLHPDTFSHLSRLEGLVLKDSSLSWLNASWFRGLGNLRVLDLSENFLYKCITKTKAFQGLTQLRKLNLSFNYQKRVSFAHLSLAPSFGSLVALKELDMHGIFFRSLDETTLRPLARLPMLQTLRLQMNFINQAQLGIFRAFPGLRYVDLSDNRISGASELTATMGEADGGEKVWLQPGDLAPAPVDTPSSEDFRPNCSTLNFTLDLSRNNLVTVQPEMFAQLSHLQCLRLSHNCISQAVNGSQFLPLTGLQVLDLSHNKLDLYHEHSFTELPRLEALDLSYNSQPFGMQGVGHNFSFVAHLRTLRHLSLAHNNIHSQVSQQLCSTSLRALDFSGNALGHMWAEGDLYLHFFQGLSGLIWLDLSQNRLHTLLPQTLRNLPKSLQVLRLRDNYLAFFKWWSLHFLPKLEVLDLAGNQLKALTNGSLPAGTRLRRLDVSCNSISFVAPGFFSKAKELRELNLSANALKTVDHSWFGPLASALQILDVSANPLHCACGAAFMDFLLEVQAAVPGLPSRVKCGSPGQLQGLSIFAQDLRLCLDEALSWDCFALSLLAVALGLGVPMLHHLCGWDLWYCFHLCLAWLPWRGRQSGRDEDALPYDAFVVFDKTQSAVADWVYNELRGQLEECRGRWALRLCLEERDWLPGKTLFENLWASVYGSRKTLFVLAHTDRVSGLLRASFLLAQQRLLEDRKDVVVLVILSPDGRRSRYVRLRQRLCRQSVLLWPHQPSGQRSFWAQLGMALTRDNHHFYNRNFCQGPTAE
Protocol: HEK-Blue™-cells (Invivogen) overexpressing human TLR7, TLR8 or TLR9 receptors were used for screening inhibitors of these receptors using an inducible SEAP (secreted embryonic alkaline phosphatase) reporter gene under the control of the IFN-β minimal promoter fused to five NF-κB and AP-1-binding sites. Briefly, cells are seeded into Greiner 384 well plates (15000 cells per well for TLR7, 20,000 for TLR8 and 25,000 for TLR9) and then treated with test compounds in DMSO to yield a final dose response concentration range of 0.05 nM-50 μM. After a 30 minute compound pre-treatment at room temperature, the cells are then stimulated with a TLR7 ligand (gardiquimod at a final concentration of 7.5 μM), TLR8 ligand (R848 at a final concentration of 15.9 μM) or TLR9 ligand (ODN2006 at a final concentration of 5 nM) to activate NF-κB and AP-1 which induce the production of SEAP. After a 22 hour incubation at 37° C., 5% CO2, SEAP levels are determined with the addition of HEK-Blue™ Detection reagent (Invivogen), a cell culture medium that allows for detection of SEAP, according to manufacturer's specifications.

human TLR8, sequence (Q9NR97 27-1041): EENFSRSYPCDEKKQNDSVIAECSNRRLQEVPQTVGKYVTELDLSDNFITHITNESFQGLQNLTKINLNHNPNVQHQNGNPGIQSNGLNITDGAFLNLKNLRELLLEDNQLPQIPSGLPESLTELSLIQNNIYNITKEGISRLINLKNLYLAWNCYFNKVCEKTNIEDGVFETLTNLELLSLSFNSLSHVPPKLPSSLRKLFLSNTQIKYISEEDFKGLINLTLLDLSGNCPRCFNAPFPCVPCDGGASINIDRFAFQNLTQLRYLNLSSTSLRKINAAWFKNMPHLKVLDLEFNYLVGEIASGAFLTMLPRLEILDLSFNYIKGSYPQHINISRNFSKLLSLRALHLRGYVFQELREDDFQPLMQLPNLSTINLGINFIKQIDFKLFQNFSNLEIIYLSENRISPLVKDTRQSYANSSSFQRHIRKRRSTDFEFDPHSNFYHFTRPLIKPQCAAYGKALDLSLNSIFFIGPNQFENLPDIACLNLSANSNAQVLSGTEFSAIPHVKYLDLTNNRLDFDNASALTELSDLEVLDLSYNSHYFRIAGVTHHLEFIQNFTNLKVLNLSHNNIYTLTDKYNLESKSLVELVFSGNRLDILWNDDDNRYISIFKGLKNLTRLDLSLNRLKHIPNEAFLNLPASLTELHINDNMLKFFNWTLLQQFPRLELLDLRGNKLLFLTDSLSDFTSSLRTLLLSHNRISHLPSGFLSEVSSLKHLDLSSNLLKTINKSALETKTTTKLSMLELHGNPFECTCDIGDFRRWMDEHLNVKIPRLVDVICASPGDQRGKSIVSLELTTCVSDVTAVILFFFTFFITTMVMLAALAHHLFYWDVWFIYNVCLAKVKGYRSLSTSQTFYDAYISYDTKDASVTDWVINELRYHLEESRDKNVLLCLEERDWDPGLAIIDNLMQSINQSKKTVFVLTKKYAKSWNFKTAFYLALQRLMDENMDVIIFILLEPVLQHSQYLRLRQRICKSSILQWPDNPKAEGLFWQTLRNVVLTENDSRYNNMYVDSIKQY
human TLR7, sequence (Q9NYK1 27-1049): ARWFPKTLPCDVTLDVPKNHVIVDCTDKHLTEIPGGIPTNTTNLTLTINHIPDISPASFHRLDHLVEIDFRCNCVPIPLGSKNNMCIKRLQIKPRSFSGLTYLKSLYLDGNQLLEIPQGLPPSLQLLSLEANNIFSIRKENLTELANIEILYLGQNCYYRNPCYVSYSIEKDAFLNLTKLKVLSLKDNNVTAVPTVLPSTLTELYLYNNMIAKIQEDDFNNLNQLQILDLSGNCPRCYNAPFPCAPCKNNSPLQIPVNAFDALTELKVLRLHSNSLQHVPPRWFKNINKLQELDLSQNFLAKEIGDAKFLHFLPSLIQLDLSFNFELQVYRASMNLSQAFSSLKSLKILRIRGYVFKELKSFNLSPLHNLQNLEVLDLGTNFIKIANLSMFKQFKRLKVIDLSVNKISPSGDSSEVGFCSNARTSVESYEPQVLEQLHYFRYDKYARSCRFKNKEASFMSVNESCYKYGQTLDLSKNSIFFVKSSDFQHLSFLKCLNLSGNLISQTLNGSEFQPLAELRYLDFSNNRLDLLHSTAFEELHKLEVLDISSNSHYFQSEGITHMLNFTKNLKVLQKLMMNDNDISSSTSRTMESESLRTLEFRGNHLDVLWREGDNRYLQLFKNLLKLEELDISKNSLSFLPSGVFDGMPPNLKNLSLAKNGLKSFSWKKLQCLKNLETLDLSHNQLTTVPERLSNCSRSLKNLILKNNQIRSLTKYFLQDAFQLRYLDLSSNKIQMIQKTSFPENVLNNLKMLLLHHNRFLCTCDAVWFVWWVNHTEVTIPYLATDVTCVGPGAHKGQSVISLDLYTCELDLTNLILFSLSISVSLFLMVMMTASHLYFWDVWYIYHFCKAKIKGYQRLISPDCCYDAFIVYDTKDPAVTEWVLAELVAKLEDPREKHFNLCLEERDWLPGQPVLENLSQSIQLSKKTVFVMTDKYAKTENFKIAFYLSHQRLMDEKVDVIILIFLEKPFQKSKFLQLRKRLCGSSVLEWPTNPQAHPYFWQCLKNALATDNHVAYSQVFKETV

Row | Compound | IC50 (human TLR7) | IC50 (human TLR8) | IC50 (human TLR9)
1 | CCc1c(-c2ccc(OC)c(OC)c2)[nH]c2ccc(C(=O)NCc3ccco3)cc12 [Example 43, 2-(3,4-dimethoxyphenyl)-3-ethyl-N-(furan-2-ylmethyl)-1H-indole-5-carboxamide] | 2500 nM | 572 nM | > 50000 nM
2 | CCc1c(-c2ccc(OC)c(OC)c2)[nH]c2ccc(C(=O)NCc3ccccn3)cc12 [Example 44, 2-(3,4-dimethoxyphenyl)-3-ethyl-N-(pyridin-2-ylmethyl)-1H-indole-5-carboxamide] | 1940 nM | 412 nM | 44800 nM
3 | CCc1c(-c2ccc(OC)c(OC)c2)[nH]c2ccc(C(=O)NCc3csc(-c4ccccc4)n3)cc12 [Example 45, 2-(3,4-dimethoxyphenyl)-3-ethyl-N-((2-phenylthiazol-4-yl)methyl)-1H-indole-5-carboxamide] | 2240 nM | 1040 nM | > 50000 nM
4 | CCc1c(-c2ccc(OC)c(OC)c2)[nH]c2ccc(C(=O)NCc3ccc(N4CCNCC4)cc3)cc12 [Example 46, 2-(3,4-dimethoxyphenyl)-3-ethyl-N-(4-(piperazin-1-yl)benzyl)-1H-indole-5-carboxamide] | 391 nM | 60 nM | 931 nM
5 | CCc1c(-c2ccc(OC)c(OC)c2)[nH]c2ccc(C(=O)NCCN3CCCC3)cc12 [Example 48, 2-(3,4-dimethoxyphenyl)-3-ethyl-N-(2-(pyrrolidin-1-yl)ethyl)-1H-indole-5-carboxamide] | 144 nM | 4.8 nM | 2700 nM
6 | CCc1c(-c2ccc(OC)c(OC)c2)[nH]c2ccc(C(=O)NCc3ccc(N)cc3)cc12 [Example 52, N-(4-aminobenzyl)-2-(3,4-dimethoxyphenyl)-3-ethyl-1H-indole-5-carboxamide] | 2380 nM | 243 nM | > 50000 nM
7 | CCc1c(-c2ccc(OC)c(OC)c2)[nH]c2ccc(C(=O)NCCCN3CCCCC3)cc12 [Example 53, 2-(3,4-dimethoxyphenyl)-3-ethyl-N-(3-(piperidin-1-yl)propyl)-1H-indole-5-carboxamide] | 258 nM | 8.1 nM | 2000 nM
8 | CCc1c(-c2ccc(OC)c(OC)c2)[nH]c2ccc(C(=O)NCCC3CCCN3C)cc12 (stereo not drawn) [Example 54, 2-(3,4-dimethoxyphenyl)-3-ethyl-N-(2-(1-methylpyrrolidin-2-yl)ethyl)-1H-indole-5-carboxamide] | 206 nM | 12 nM | 1810 nM
9 | CCc1c(-c2ccc(OC)c(OC)c2)[nH]c2ccc(C(=O)NCCCN3CCN(C)CC3)cc12 [Example 55, 2-(3,4-dimethoxyphenyl)-3-ethyl-N-(3-(4-methylpiperazin-1-yl)propyl)-1H-indole-5-carboxamide] | 954 nM | 16 nM | 2090 nM
10 | CCc1c(-c2ccc(OC)c(OC)c2)[nH]c2ccc(C(=O)N3CCC(N4CCCCC4)CC3)cc12 [Example 56, [1,4′-bipiperidin]-1′-yl(2-(3,4-dimethoxyphenyl)-3-ethyl-1H-indol-5-yl)methanone] | 112 nM | 13 nM | 2190 nM
11 | CCc1c(-c2ccc(OC)c(OC)c2)[nH]c2ccc(C(=O)N3CCN(c4ncccn4)CC3)cc12 [Example 57, (2-(3,4-dimethoxyphenyl)-3-ethyl-1H-indol-5-yl)(4-(pyrimidin-2-yl)piperazin-1-yl)methanone] | 577 nM | 218 nM | > 50000 nM
12 | CCc1c(-c2ccc(OC)c(OC)c2)[nH]c2ccc(C(=O)N3CCN(C(=O)c4ccco4)CC3)cc12 [Example 60, (2-(3,4-dimethoxyphenyl)-3-ethyl-1H-indol-5-yl)(4-(furan-2-carbonyl)piperazin-1-yl)methanone] | 206 nM | 115 nM | > 50000 nM
13 | CCc1c(-c2ccc(OC)c(OC)c2)[nH]c2ccc(C(=O)N3CCN(c4ccc(C(F)(F)F)cn4)CC3)cc12 [Example 61, (2-(3,4-dimethoxyphenyl)-3-ethyl-1H-indol-5-yl)(4-(5-(trifluoromethyl)pyridin-2-yl)piperazin-1-yl)methanone] | 4120 nM | 1620 nM | 10200 nM
14 | CCc1c(-c2ccc(OC)c(OC)c2)[nH]c2ccc(C(=O)N3CCNC(=O)C3)cc12 [Example 62, 4-(2-(3,4-dimethoxyphenyl)-3-ethyl-1H-indole-5-carbonyl)piperazin-2-one] | 493 nM | 381 nM | > 50000 nM
15 | CCc1c(-c2ccc(OC)c(OC)c2)[nH]c2ccc(C(=O)N3CCC(n4c(=O)[nH]c5ccccc54)CC3)cc12 [Example 63, 1-(1-(2-(3,4-dimethoxyphenyl)-3-ethyl-1H-indole-5-carbonyl)piperidin-4-yl)-1,3-dihydro-2H-benzo[d]imidazol-2-one] | 801 nM | 464 nM | 13600 nM
16 | CCc1c(-c2ccc(OC)c(OC)c2)[nH]c2ccc(C(=O)N3CCCN(c4ncccn4)CC3)cc12 [Example 64, (2-(3,4-dimethoxyphenyl)-3-ethyl-1H-indol-5-yl)(4-(pyrimidin-2-yl)-1,4-diazepan-1-yl)methanone] | 1280 nM | 2190 nM | 16600 nM
17 | CCc1c(-c2ccc(OC)c(OC)c2)[nH]c2ccc(C(=O)N3CCCN(c4ccccn4)CC3)cc12 [Example 65, (2-(3,4-dimethoxyphenyl)-3-ethyl-1H-indol-5-yl)(4-(pyridin-2-yl)-1,4-diazepan-1-yl)methanone] | 1210 nM | 1630 nM | 7240 nM
18 | CCc1c(-c2ccc(OC)c(OC)c2)[nH]c2ccc(C(=O)N3CCc4ccccc43)cc12 [Example 66, (2-(3,4-dimethoxyphenyl)-3-ethyl-1H-indol-5-yl)(indolin-1-yl)methanone] | 3940 nM | 1170 nM | > 50000 nM
19 | CCc1c(-c2ccc(OC)c(OC)c2)[nH]c2ccc(C(=O)NC(CO)CO)cc12 [Example 67, N-(1,3-dihydroxypropan-2-yl)-2-(3,4-dimethoxyphenyl)-3-ethyl-1H-indole-5-carboxamide] | 1770 nM | 412 nM | > 50000 nM
20 | CCc1c(-c2ccc(OC)c(OC)c2)[nH]c2ccc(C(=O)NCCC(N)=O)cc12 [Example 68, N-(3-amino-3-oxopropyl)-2-(3,4-dimethoxyphenyl)-3-ethyl-1H-indole-5-carboxamide] | 1710 nM | 277 nM | > 50000 nM
21 | CCc1c(-c2ccc(OC)c(OC)c2)[nH]c2ccc(C(=O)NCCO)cc12 [Example 69, 2-(3,4-dimethoxyphenyl)-3-ethyl-N-(2-hydroxyethyl)-1H-indole-5-carboxamide] | 968 nM | 274 nM | > 50000 nM
22 | CCc1c(-c2ccc(OC)c(OC)c2)[nH]c2ccc(C(=O)NCCC(C)(C)NS(C)(=O)=O)cc12 [Example 71, 2-(3,4-dimethoxyphenyl)-3-ethyl-N-(3-methyl-3-(methylsulfonamido)butyl)-1H-indole-5-carboxamide] | 1630 nM | 439 nM | > 50000 nM
23 | CCc1c(-c2ccc(OC)c(OC)c2)[nH]c2ccc(C(=O)NCC(C)(C)CO)cc12 [Example 72, 2-(3,4-dimethoxyphenyl)-3-ethyl-N-(3-hydroxy-2,2-dimethylpropyl)-1H-indole-5-carboxamide] | 579 nM | 408 nM | > 50000 nM
24 | CCc1c(-c2ccc(OC)c(OC)c2)[nH]c2ccc(C(=O)N(CC)CCN(C)C)cc12 [Example 73, 2-(3,4-dimethoxyphenyl)-N-(2-(dimethylamino)ethyl)-N,3-diethyl-1H-indole-5-carboxamide] | 25 nM | 4 nM | 4340 nM
25 | CCc1c(-c2ccc(OC)c(OC)c2)[nH]c2ccc(C(=O)N(C)CCCN(C)C)cc12 [Example 74, 2-(3,4-dimethoxyphenyl)-N-(3-(dimethylamino)propyl)-3-ethyl-N-methyl-1H-indole-5-carboxamide] | 156 nM | 16 nM | 5880 nM
26 | CCc1c(-c2ccc(OC)c(OC)c2)[nH]c2ccc(C(=O)NCCCN(C)C)cc12 [Example 75, 2-(3,4-dimethoxyphenyl)-N-(3-(dimethylamino)propyl)-3-ethyl-1H-indole-5-carboxamide] | 124 nM | 7.6 nM | 250 nM
27 | CCc1c(-c2ccc(OC)c(OC)c2)[nH]c2ccc(C(=O)N(C)CCN(C)C)cc12 [Example 76, 2-(3,4-dimethoxyphenyl)-N-(2-(dimethylamino)ethyl)-3-ethyl-N-methyl-1H-indole-5-carboxamide] | 56 nM | 3.9 nM | 4890 nM
28 | CCc1c(-c2ccc(OC)c(OC)c2)[nH]c2ccc(C(=O)N(CCOC)CCOC)cc12 [Example 77, 2-(3,4-dimethoxyphenyl)-3-ethyl-N,N-bis(2-methoxyethyl)-1H-indole-5-carboxamide] | 714 nM | 480 nM | 40300 nM
29 | CCc1c(-c2ccc(OC)c(OC)c2)[nH]c2ccc(C(=O)N3CC4CNCC4C3)cc12 (stereo not drawn) [Example 79, (2-(3,4-dimethoxyphenyl)-3-ethyl-1H-indol-5-yl)(hexahydropyrrolo[3,4-c]pyrrol-2(1H)-yl)methanone] | 296 nM | 124 nM | 1050 nM
30 | CCc1c(-c2ccc(OC)c(OC)c2)[nH]c2ccc(C(=O)N3CCN(C4CCN(C(C)C)CC4)CC3)cc12 [Example 80, (2-(3,4-dimethoxyphenyl)-3-ethyl-1H-indol-5-yl)(4-(I-isopropylpiperidin-4-yl)piperazin-1-yl) methanone] | 177 nM | 2.9 nM | 836 nM
